Laboratory results taken from patent US6723897B2, “Methods for controlling gibberellin levels” (Monsanto Technology, LLC, priority 1998, dated 2004).

What was measured:
[1] = test system: A3237 soybean; test: Stature of soybean plants with ancymidol soil drench; type: in vivo, Glycine max
Procedure: R1 lines are also evaluated for stature reduction, a key indicator of GA-deficiency in soybean. R1 seeds are grown as described above. Plant height is routinely measured at approximately one week after planting. Four lines (696, 719, 720 and 724) are identified that had overall stature reduction relative to the control (A3237) line and the control line plus ancymidol (10 mg/L), an inhibitor of GA (Table 3). As these are segregating from R1 seeds, the distribution stature of the plants is evaluated. Three lines (719, 720 and 724) have a population of strong dwarf soybean plants (<25% the height of the average control plant). The segregation ratio of R1 pMON29801 (FMV/asCPScc) (FIG. 7) soybean plants is checked by phenotype (stature) and for the expression of CP4 5-enolpyruvylshikimate-3-phosphate synthase by ELISA (Rogan et al., J. Food Control, in Press (1998)). The results for both of these analyses are fairly consistent (Table 4): Line 696 segregated at about 1:3, line 719 at about 1:2, line 720 at about 2:1 and line 724 at about 3:1. Thus, only line 724 is what could be considered normal Mendelian segregation.
In soybean, GAs increase through mid-seed development, and then decline as the seed matures (Birnberg et al. (1986) Plant Physiol. 82:241-246). This trend is similar to that observed in other legumes. […] This is supported by the following observations (data not shown). […] This is well after germination and axis elongation have begun. Both of these observations support the hypothesis that soybean seed germination and early axis elongation are not dependent on de novo gibberellin biosynthesis.

[2] = test system: wild-type soybean line A3237; test: Experiment I greenhouse test, seed imbibition, wild-type soybean; conditions: 0.25 mg/ml; seeds imbibed 5 hours
Procedure: Compounds are first prepared as 25 mg/ml solutions in ethanol as described above, and then diluted into 40 ml of water to prepare the final 0.25 mg/ml treatment solutions. Visual observations on solubilities (milky, clear, etc.) of the treatment solutions are noted. The treatment solutions are divided into two 20 ml portions, each in 50 ml plastic centrifuge tubes. In addition to treating seeds with solutions containing the test compounds, untreated seeds and seeds imbibed in ethanol-water solution (300 μl ethanol in 30 mls of water) are also included in this experiment as controls. […]
(§1) After imbibition, seeds are removed from the test tubes, placed on wax paper to dry, and planted in bread pans containing farm soil amended with fertilizer at 20 seeds/pan. Seeds are covered with 0.5″ of vermiculite. Pans are transferred to the greenhouse, which had day/night temperatures of 86/68° F. (30/20° C.), and subirrigated. Illumination is at a light intensity of 300-400 μmolm^−2s^−1 photosynthetic photon flux; 16 hours light/8 hours dark. Subsequent waterings are also through sub-irrigation until the test is terminated three weeks later. Observations included the number of dwarf, intermediate, and tall plants; plant height; uniformity of rescue; and any visual effects.

[3] = Particulate material present in solutions after mixing; type: physicochemical; conditions: for Particulate material present, 100X Diln w/water: 0.25 mg/ml compound in water; for solubility in water during imbibition: 0.25 mg/ml treatment solutions; for Particulate material present, Initial Mixing: 25 mg/ml in absolute ethanol
Procedure: Each of the compounds noted above is weighed to the nearest 0.1 mg in a pre-tarred 1.5-ml polypropylene vial with a screw-top lid. Absolute ethanol is added to the weighed powder to prepare a 25 mg/ml solution. Solutions are thoroughly mixed using a vortex mixer. A stainless steel spatula is used to crush any particulate material remaining after extensive mixing. Vials are left overnight at room temperature, and then remixed to form the concentrated ethanol stock solutions. The presence of undissolved material is noted throughout this procedure.

[4] = test system: constitutively GA-deficient transgenic dwarf soybeans (line 719); test: Summary of first two greenhouse experiments, rescue of GA-deficient soybeans; type: in vivo, Glycine max; design: key: +: transgenic soybeans are rescued; 0: transgenic soybeans are not rescued; conditions: 0.25 mg/ml solution (ethanol-water)
Procedure: (§2) Compounds are first prepared as 25 mg/ml solutions in ethanol as described above, and then diluted into 40 ml of water to prepare the final 0.25 mg/ml treatment solutions. Visual observations on solubilities (milky, clear, etc.) of the treatment solutions are noted. The treatment solutions are divided into two 20 ml portions, each in 50 ml plastic centrifuge tubes. In addition to treating seeds with solutions containing the test compounds, untreated seeds and seeds imbibed in ethanol-water solution (300 μl ethanol in 30 mls of water) are also included in this experiment as controls. In the latter case, 20 seeds are imbibed in 30 mls of solution for six hours.
as §1, with “Two soybean varieties are selected for testing: constitutively GA-deficient transgenic dwarf soybean line 719 (plasmid pMON29801, constitutive FMV promoter/asCPScc; which is a mixture of 719−2 and 719+17), and A3237, the wild-type parent material. […] After” for “After”
(§3) All compounds are tested at final concentrations of 0.25, 0.025, and 0.0025 mg/ml except for GA9, which is tested at 0.125, 0.0125, and 0.00125 mg/ml. (The compounds are tested in Experiment I at only one concentration, i.e., 0.25 mg/ml). Test tubes contained […] of ethanol solution per tube. Final volumes are made up to 30 ml with deionized water. After shaking, the treatment solutions (15 ml each) are transferred to each of two 50 ml test tubes. Treatments 1 to 27 are performed on wild-type line A3237; treatments 28 to 54 are performed on constitutively GA-deficient transgenic dwarf soybean line 719 (a mixture of 719−2 and 719+17). Twenty seeds are used in each treatment. Dry seed, ethanol/water-imbibed seed (1% ethanol in water, v/v), and water-imbibed seeds are included as controls. Seeds are imbibed for 6 hours in the test solutions, then planted in bread pans containing Metromix 350 (The Scotts Company, Marysville, Ohio), and covered with 0.5″ Metro-mix. Covered pans are transferred to the greenhouse and subirrigated. Illumination is at a light intensity of 300-400 μmolm^−2s^−1 photosynthetic photon flux; 16 hours light/8 hours dark. Subsequent waterings are also through sub-irrigation until the test is terminated three weeks later. Observations included the number of dwarf, intermediate, and tall plants; plant height; uniformity of rescue; and any visual effects. Digital photographs are also taken.

[5] = test system: GA-deficient transgenic soybean line 719 (R5); test: Hilum treatment of soybean seeds, seedling growth and development, GA-deficient soybean; type: in vivo, Glycine max; design: key to Emergence timing / Hypocotyl length (6 DAP) / 1st internode length (12 DAP) / 3rd internode length (20 DAP) / 2nd internode length (12 DAP): pos: emergence faster/stem segment longer than controls; 0: emergence timing/stem segment length similar to controls; neg: emergence slower/stem segment shorter than controls; conditions: for 1st internode length (12 DAP) / Emergence timing / Hypocotyl length (6 DAP): single rate per compound 8.3-16.5 μg/seed
Procedure: (§4) In the previous experiments, the effect of various GA compounds on transgenic, GA-deficient and wild-type soybean is evaluated by treating seeds with these compounds via imbibition. Several of these compounds are not completely soluble in water, which limited the interpretation of their utility in rescuing GA-deficient dwarf plants. The purpose of this experiment is to reevaluate selected, previously tested compounds, and additional compounds, by introducing them to the seed via the hilum. As shown by the results presented below, direct application of small quantities of GA compounds dissolved in an organic solvent to the hilum is an effective method of treating soybean seeds. As in the previously described experiments, comparison is made between activity on GA-deficient soybean seedlings and normal (wild-type) seedlings. […] soybean seeds are supplied by Asgrow Seed Company (Des Moines, Iowa). Seed of GA-deficient transgenic soybean line 719 is created by transformation of […] soybean with pMON29801 (FMV/antisense CPScc). Fifth generation seed (R5) is used for these experiments. […] When multiple droplets are applied, each 1 μl droplet is allowed to dry before subsequent droplets are added. Ethanol minus compound is used a treatment control. […] (29° C.) and 75° F. (24° C.), respectively. Emergence timing is measured by counting the number of emerged seedlings at different times after planting. Emergence is defined as the presence of cotyledons raised to soil level or above. […] To assess the ability of a seed treatment to deliver biological activity beyond the first internode, measurements are taken on selected treatments after prolonged growth and development.

[6] = test system: constitutively GA-deficient transgenic dwarf soybean line 719; test: Experiment I greenhouse test, seed imbibition, GA-deficient soybean; type: in vivo, Glycine max; design: Observation on Transgenic Line 719: key: −1: treated plants are shorter as compared to untreated plants; 0: treated plants had the same stature as untreated plants; 1: treated plants are slightly elongated as compared to untreated plants; 2: treated plants are moderately elongated as compared to untreated plants; 3: treated plants are highly elongated as compared to untreated plants; 4: treated plants are extremely elongated as compared to untreated plants; conditions: 0.25 mg/ml; for effect in both the constitutive transgenic dwarf and wild-type soybean lines: imbibition, lines 719 and A3237; for Observation on Transgenic Line 719: seeds imbibed 5 hours
Text: Seeds are covered with 0.5″ of vermiculite.

[7] = test system: wild-type A3237 soybean; test: Hilum treatment of soybean seeds, seedling growth and development, wild-type soybean; type: in vivo, Glycine max; design: key to Emergence timing / Hypocotyl length (6 DAP) / 1st internode length (12 DAP) / 3rd internode length (20 DAP): pos: emergence faster/stem segment longer than controls; 0: emergence timing/stem segment length similar to controls; neg: emergence slower/stem segment shorter than controls; conditions: for 1st internode length (12 DAP) / Emergence timing / Hypocotyl length (6 DAP): single rate per compound 8.3-16.5 μg/seed
Procedure: as §4

[8] = test system: wild-type soybeans (line A3237); test: Summary of first two greenhouse experiments, elongation of wild-type soybeans; conditions: 0.25 mg/ml solution (ethanol-water)
Procedure: as §2
as §1, with “Two soybean varieties are selected for testing: constitutively GA-deficient transgenic dwarf soybean line 719 (plasmid pMON29801, constitutive FMV promoter/asCPScc; which is a mixture of 719−2 and 719+17), and A3237, the wild-type parent material. […] After” for “After”
as §3

[9] = L719, hilum treatment, rate response

SMILES | Observation on Wild-Type Line A3237 [2] | Particulate material present, 100X Diln w/water [3] | solubility in water during imbibition [3] | Particulate material present, Initial Mixing [3] | Rescue of GA-deficient soybeans [4] | 1st internode length (12 DAP) ([5]; L719, hilum treatment) | Emergence timing ([5]; L719, hilum treatment) | Hypocotyl length (6 DAP) ([5]; L719, hilum treatment) | effect in both the constitutive transgenic dwarf and wild-type soybean lines [6] | Observation on Transgenic Line 719 [6] | 1st internode length (12 DAP) [7] | Emergence timing [7] | Hypocotyl length (6 DAP) [7] | other results
COc1ccc(C(O)(c2cncnc2)C2CC2)cc1 (centres unmarked) [ancymidol] | – | – | – | – | – | – | – | – | – | – | – | – | – | Height (% of control) ([1]; 7 DAP, ancymidol 10 mg/L): 14 % of control; Frequency of heights relative to A3237 control (%), 0-25% ([1]; ancymidol soil drench 10 mg/L): 100%; Frequency of heights relative to A3237 control (%), 25-50% ([1]; ancymidol soil drench 10 mg/L): 0%; Frequency of heights relative to A3237 control (%), 50-75% ([1]; ancymidol soil drench 10 mg/L): 0%; Frequency of heights relative to A3237 control (%), 75-100% ([1]; ancymidol soil drench 10 mg/L): 0%; soybean axis elongation ([1]; first one to two days of growth, data not shown): does not reduce soybean axis elongation
C=C1C[C@@]23CC[C@H]4[C@@](C)(CCC[C@@]4(C)C(=O)O)[C@@H]2CC[C@]1(O)C3 (single isomer, unassigned; ent-7) [steviol] | 0 | YES | less soluble in water during imbibition | YES | 0 | 0 | pos | pos | no substantial activity | 0 | 0 | 0 | 0 | Lowest rate where biological activity is observed, 1st internode length (10 DAP) [5, 9]: >100 μg/seed; Lowest rate where biological activity is observed, emergence timing [5, 9]: 10 μg/seed; Lowest rate where biological activity is observed, hypocotyl length (5 DAP) [5, 9]: 1 μg/seed; activity on line 719 in terms of emergence timing and hypocotyl length ([5]; single rate, hilum, concentration that does not affect normal plant tissue): biologically active; Lowest rate where biological activity is observed, 1st internode length (10 DAP) ([7]; rate response): >100 μg/seed; Lowest rate where biological activity is observed, emergence timing ([7]; rate response): >100 μg/seed; Lowest rate where biological activity is observed, hypocotyl length (5 DAP) ([7]; rate response): >100 μg/seed
C=C1C[C@@]23CC[C@@H]4C(C)(C)CCC[C@@]4(C)[C@@H]2CC[C@@H]1C3 [kaurene] | 0 | YES | less soluble in water during imbibition | YES | 0 | 0 | pos | 0 | no substantial activity | 0 | 0 | 0 | 0 | Particulate material present, O/N Incubation ([3]; 25 mg/ml in ethanol, overnight at room temperature, remixed): YES; Elongation of wild-type soybeans [8]: 0
